From patent US8957064B2, “Fused pyrimidines” (Bayer Intellectual Property GmbH, priority 2009, dated 2015)

Assays:
[1] = target: His-tagged human recombinant kinase full-length Akt1 (Homo sapiens (Human), UniProt P31749); assay: Akt1 kinase assay (Akt1 TR-FRET assay, Biological Assay 1.0); assay type: biochemical; details: 10 μM ATP, 1 μM biotinylated peptide substrate, 60 min at 22° C.
In short: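 Insect-cell-expressed full-length His-Akt1 (~0.05 ng/μl) preincubated 15 min with compound, then reacted 60 min at 22 °C with 10 μM ATP and 1 μM biotinylated peptide (final), pH 7.5. Phosphopeptide detected by HTRF (665/620 nm ratio). Data normalised to no-inhibitor and no-enzyme controls.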

[2] = target: His-tagged human recombinant kinase full-length Akt2 activated by PDK1 (Homo sapiens (Human), UniProt P31751); assay: Akt2 kinase assay (Akt2 TR-FRET assay, Biological Assay 2.0); assay type: biochemical; details: 10 μM ATP, 1 μM biotinylated peptide substrate, 60 min at 22° C.
In short: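 Compound was pre-incubated with enzyme (~0.2 ng/µl final) for 15 min at 22 °C in Tris pH 7.5, 5 mM MgCl2, then reacted 60 min with 10 µM ATP and 1 µM biotinylated peptide. Phosphopeptide was detected by TR-FRET (665/622 nm ratio). Data were normalised to no-inhibitor (0%) and no-enzyme (100%) controls.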

Sequence of His-tagged human recombinant kinase full-length Akt1 (P31749 whole entry): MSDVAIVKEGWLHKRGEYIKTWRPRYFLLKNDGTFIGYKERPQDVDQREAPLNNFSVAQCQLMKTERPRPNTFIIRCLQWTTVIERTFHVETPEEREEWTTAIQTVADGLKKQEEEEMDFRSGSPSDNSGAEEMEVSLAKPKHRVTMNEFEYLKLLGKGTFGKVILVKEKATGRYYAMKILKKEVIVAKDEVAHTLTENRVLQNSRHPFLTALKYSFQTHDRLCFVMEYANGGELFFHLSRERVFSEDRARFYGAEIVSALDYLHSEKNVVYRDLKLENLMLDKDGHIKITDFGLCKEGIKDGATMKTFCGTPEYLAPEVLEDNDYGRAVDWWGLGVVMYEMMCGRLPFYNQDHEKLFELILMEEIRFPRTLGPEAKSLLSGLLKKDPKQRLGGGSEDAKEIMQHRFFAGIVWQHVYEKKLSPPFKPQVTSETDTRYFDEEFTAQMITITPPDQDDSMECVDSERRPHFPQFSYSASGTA
Sequence of His-tagged human recombinant kinase full-length Akt2 activated by PDK1 (P31751 whole entry): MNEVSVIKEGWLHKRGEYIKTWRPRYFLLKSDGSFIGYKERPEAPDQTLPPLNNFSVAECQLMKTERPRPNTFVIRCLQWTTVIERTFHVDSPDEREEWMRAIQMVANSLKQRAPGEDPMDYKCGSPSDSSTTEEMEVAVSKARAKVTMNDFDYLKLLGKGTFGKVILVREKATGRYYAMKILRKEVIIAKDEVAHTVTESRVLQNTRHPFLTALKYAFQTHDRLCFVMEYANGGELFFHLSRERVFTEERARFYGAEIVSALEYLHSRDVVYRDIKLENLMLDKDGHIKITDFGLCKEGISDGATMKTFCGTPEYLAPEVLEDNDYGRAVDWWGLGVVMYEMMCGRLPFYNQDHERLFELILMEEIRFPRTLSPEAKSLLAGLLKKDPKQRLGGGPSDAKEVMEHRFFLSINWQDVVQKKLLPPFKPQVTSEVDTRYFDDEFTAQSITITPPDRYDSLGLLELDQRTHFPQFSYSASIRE

Cc1nc2nc(-c3ccc(CN4CC(c5n[nH]c(-c6ccccn6)n5)C4)cc3)c(-c3ccccc3)c(NC(C)C)n2n1 [Example 45.2, isopropyl-(2-methyl-6-phenyl-5-{4-[3-(5-pyridin-2-yl-1H-[1,2,4]triazol-3-yl)-azetidin-1-ylmethyl]-phenyl}-[1,2,4]triazolo[1,5-a]pyrimidin-7-yl)-amine]
melting point: 176.8 °C

COC(=O)c1cn2cc(-c3ccccc3)c(-c3ccc(CN4CC(c5n[nH]c(-c6cccc(C)n6)n5)C4)cc3)nc2n1 [Example 74.0, 7-(4-{3-[5-(6-methylpyridine-2-yl)-1H-[1,2,4]triazole-3-yl]-azetidine-1-ylmethyl}-phenyl)-6-phenyl-imidazo[1,2-a]pyrimidine-2-carboxylic acid methyl ester]
IC50 [1]: 12 nM | IC50 [2]: 14 nM

COC(=O)c1cn2cc(-c3ccccc3)c(-c3ccc(CN4CC(c5n[nH]c(-c6ccccn6)n5)C4)cc3)nc2n1 [Example 74.1, 6-phenyl-7-{4-[3-[5-pyridine-2-yl-1H-[1,2,4]triazole-3-yl)azetidine-1-ylmethyl]-phenyl}-imidazo[1,2-a]pyrimidine-2-carboxylic acid methyl ester]
IC50 [1]: 10 nM | IC50 [2]: 17 nM

OCc1cn2cc(-c3ccccc3)c(-c3ccc(CN4CC(c5n[nH]c(-c6ccccn6)n5)C4)cc3)nc2n1 [Example 75.0]
IC50 [1]: 72 nM | IC50 [2]: 124 nM

Cc1nc2nc(-c3ccc(CN4CCC(c5n[nH]c(-c6ccccn6)n5)CC4)cc3)c(-c3cc(F)ccc3F)cn2n1 [Example 76.0, 6-(2,5-difluorophenyl)-2-methyl-5-{4-[4-(5-pyridine-2-yl-1H-[1,2,4]triazole-3-yl)-piperidine-1-ylmethyl]-phenyl}-[1,2,4]triazolo[1,5-a]pyrimidine]
IC50 [1]: 60 nM | IC50 [2]: 154 nM
